Measured values: ChEMBL document CHEMBL2375306, “Antimicrobial peptides containing unnatural amino acid exhibit potent bactericidal activity against ESKAPE pathogens” (Bioorg Med Chem, 2013)
≈ marks a conversion by molar mass, not a printed value. Square brackets hold non-standard residues; d marks the D form. Peptide text beside a SMILES is read from it. * marks the point of attachment. ξ: configuration not given here. Pro(3ξ,4ξ-(CH2)4) = O=C(O)[C@H]1NCC2CCCCC21; Phe(4-F) = N[C@@H](Cc1ccc(F)cc1)C(=O)O; Tic = O=C(O)[C@@H]1Cc2ccccc2CN1; X4 = CC(=O)NC(=O)[C@H](CCCN)N*; Orn = NCCC[C@H](N)C(=O)O

Key:
Type in all cases: functional
Enterococcus faecium = experiment: Antibacterial activity against Enterococcus faecium MMC4 after 24 hrs by broth microdilution method; settings: MMC4, 24 h
Klebsiella aerogenes = experiment: Antibacterial activity against Enterobacter aerogenes after 24 hrs by broth microdilution method
Pseudomonas aeruginosa = experiment: Antibacterial activity against Pseudomonas aeruginosa PAO1 after 24 hrs by broth microdilution method; settings: PAO1, 24 h
Klebsiella pneumoniae = experiment: Antibacterial activity against Klebsiella pneumoniae BAMS clinical isolate 07-18 after 24 hrs by broth microdilution method; settings: BAMS clinical isolate 07-18, 24 h
Acinetobacter baumannii = experiment: Antibacterial activity against Acinetobacter baumannii WRAIR clinical isolate 13 after 24 hrs by broth microdilution method; settings: WRAIR clinical isolate 13, 24 h
Staphylococcus aureus = experiment: Antibacterial activity against methicillin-sensitive Staphylococcus aureus UAMS-1 after 24 hrs by broth microdilution method; settings: UAMS-1, 24 h

Structure (SMILES)	MBC (Enterococcus faecium) [µg/mL]	MIC (Enterococcus faecium) [µg/mL]	MBC (Klebsiella aerogenes) [µg/mL]	MIC (Klebsiella aerogenes) [µg/mL]	MBC (Pseudomonas aeruginosa) [µg/mL]	MIC (Pseudomonas aeruginosa) [µg/mL]	MBC (Klebsiella pneumoniae) [µg/mL]	MIC (Klebsiella pneumoniae) [µg/mL]	MBC (Acinetobacter baumannii) [µg/mL]	MIC (Acinetobacter baumannii) [µg/mL]	MBC (Staphylococcus aureus) [µg/mL]	MIC (Staphylococcus aureus) [µg/mL]
CC(=O)NCC(=O)N[C@@H](Cc1ccc(F)cc1)C(=O)N1Cc2ccccc2C[C@H]1C(=O)N1CC2CCCCC2[C@H]1C(=O)NCC(=O)N[C@@H](CCCCN)C(=O)N1Cc2ccccc2C[C@H]1C(=O)N1CC2CCCCC2[C@H]1C(=O)NCC(=O)N[C@@H](Cc1ccc(F)cc1)C(=O)N1Cc2ccccc2C[C@H]1C(=O)N1CC2CCCCC2[C@H]1C(=O)NCC(=O)N[C@@H](CCCCN)C(=O)N1Cc2ccccc2C[C@H]1C(=O)N[C@@H](CCCCN)C(=O)N[C@@H](CCCCN)C(=O)N[C@@H](CCCCN)C(=O)N[C@@H](CCCCN)C(N)=O (stereo partly drawn) (Ac-G[Phe(4-F)][Tic][Pro(3ξ,4ξ-(CH2)4)]GK[Tic][Pro(3ξ,4ξ-(CH2)4)]G[Phe(4-F)][Tic][Pro(3ξ,4ξ-(CH2)4)]GK[Tic]KKKK-NH2)	50 (≈ 20.2 µM)	25 (≈ 10.1 µM)	> 100	> 100	> 100	> 100	100 (≈ 40.4 µM)	100 (≈ 40.4 µM)	25 (≈ 10.1 µM)	12.5 (≈ 5.05 µM)	100 (≈ 40.4 µM)	100 (≈ 40.4 µM)
CC(=O)NCC(=O)N[C@@H](Cc1ccccc1)C(=O)N1Cc2ccccc2C[C@H]1C(=O)N1CC2CCCCC2[C@H]1C(=O)NCC(=O)N[C@@H](CCCN)C(=O)N1Cc2ccccc2C[C@H]1C(=O)N1CC2CCCCC2[C@H]1C(=O)NCC(=O)N[C@@H](Cc1ccccc1)C(=O)N1Cc2ccccc2C[C@H]1C(=O)N1CC2CCCCC2[C@H]1C(=O)NCC(=O)N[C@@H](CCCN)C(=O)N1Cc2ccccc2C[C@H]1C(=O)N[C@@H](CCCN)C(=O)N[C@@H](CCCN)C(=O)N[C@@H](CCCN)C(=O)N[C@@H](CCCN)C(=O)NC(C)=O (stereo partly drawn) (Ac-GF[Tic][Pro(3ξ,4ξ-(CH2)4)]G[Orn][Tic][Pro(3ξ,4ξ-(CH2)4)]GF[Tic][Pro(3ξ,4ξ-(CH2)4)]G[Orn][Tic][Orn][Orn][Orn]-X4)	50 (≈ 20.8 µM)	12.5 (≈ 5.21 µM)	> 100	100 (≈ 41.7 µM)	50 (≈ 20.8 µM)	50 (≈ 20.8 µM)	50 (≈ 20.8 µM)	50 (≈ 20.8 µM)	25 (≈ 10.4 µM)	6.25 (≈ 2.61 µM)	100 (≈ 41.7 µM)	100 (≈ 41.7 µM)
CC(=O)NCC(=O)N[C@@H](Cc1ccccc1)C(=O)N1Cc2ccccc2C[C@H]1C(=O)N1CC2CCCCC2[C@H]1C(=O)NCC(=O)N[C@@H](Cc1c[nH]c2ccccc12)C(=O)N1Cc2ccccc2C[C@H]1C(=O)N1CC2CCCCC2[C@H]1C(=O)NCC(=O)N[C@@H](Cc1ccccc1)C(=O)N1Cc2ccccc2C[C@H]1C(=O)N1CC2CCCCC2[C@H]1C(=O)NCC(=O)N[C@@H](Cc1c[nH]c2ccccc12)C(=O)N1Cc2ccccc2C[C@H]1C(=O)N[C@@H](CCCCN)C(=O)N[C@@H](CCCCN)C(=O)N[C@@H](CCCCN)C(=O)N[C@@H](CCCCN)C(N)=O (stereo partly drawn) (Ac-GF[Tic][Pro(3ξ,4ξ-(CH2)4)]GW[Tic][Pro(3ξ,4ξ-(CH2)4)]GF[Tic][Pro(3ξ,4ξ-(CH2)4)]GW[Tic]KKKK-NH2)	100 (≈ 39.1 µM)	25 (≈ 9.78 µM)	> 100	> 100	> 100	> 100	> 100	> 100	100 (≈ 39.1 µM)	25 (≈ 9.78 µM)	> 100	> 100
CC(=O)NCC(=O)N[C@@H](Cc1ccccc1)C(=O)N1Cc2ccccc2C[C@H]1C(=O)N1CC2CCCCC2[C@H]1C(=O)NCC(=O)N[C@@H](CC(=O)O)C(=O)N[C@@H](CCCCN)C(=O)N1Cc2ccccc2C[C@H]1C(=O)N1CC2CCCCC2[C@H]1C(=O)NCC(=O)N[C@@H](Cc1ccccc1)C(=O)N1Cc2ccccc2C[C@H]1C(=O)N1CC2CCCCC2[C@H]1C(=O)NCC(=O)N[C@@H](CC(=O)O)C(=O)N[C@@H](CCCCN)C(=O)N1Cc2ccccc2C[C@H]1C(=O)N[C@@H](CCCCN)C(=O)N[C@@H](CCCCN)C(=O)N[C@@H](CCCCN)C(=O)N[C@@H](CCCCN)C(N)=O (stereo partly drawn) (Ac-GF[Tic][Pro(3ξ,4ξ-(CH2)4)]GDK[Tic][Pro(3ξ,4ξ-(CH2)4)]GF[Tic][Pro(3ξ,4ξ-(CH2)4)]GDK[Tic]KKKK-NH2)	50 (≈ 18.7 µM)	12.5 (≈ 4.68 µM)	> 100	> 100	> 100	> 100	100 (≈ 37.4 µM)	100 (≈ 37.4 µM)	25 (≈ 9.36 µM)	12.5 (≈ 4.68 µM)	> 100	> 100
